Data set [1] deals with T1, CYP2C9 (Homo sapiens, UniProt P11712).
T1 construct: tissue Gentest Corp. (Woburn, Mass.); host or cells: pooled human liver microsomes
Nature of the data set: CYP inhibition in HLM: S-warfarin 7-hydroxylation. The data set is classed as in vitro ADME. The conditions noted are these: 10 or 50 μM. Here is the method:
(§1) The incubations were carried out in test tubes (12.0×75 mm). The incubation mixtures (250 μL) contained 0.5 mg of HLM protein, 50 (CYP1A2 and CYP2E1) or 25 (CYP2C9, CYP2C19, CYP2D6 and CYP3A4) pmol of recombinant human CYPs, Compound 1 (10 or 50 μM), probe substrate (R—, S-warfarin, chlorzoxazone, S-mephenyloin, or bufuralol) at different concentrations, and 0.5 mg of NADPH in 50 mM Tris buffer containing 15 mM MgCl2 (pH 7.4). Compound 1 was added to the reaction mixture 5 minutes prior to the addition of the probe substrate. […]
(§2) The quantification was based on the calibration curves, and the quality control (QC) samples were applied to ensure the quality of the experiments. […]
1. CYP1A2/2C9/3A4-mediated warfarin 6-, 7-, 8-, and 10-hydroxylation (Zhang et al., Drug Metab. Dispos. 23:1339-1346, 1995; Rettie et al., Chem. Res. Toxicol. 5:54-59, 1992; Brian et al., Biochemistry 29:11280-11292, 1990): Hewlett Packard 1100 HPLC system (Waldbronn, Germany) comprised a binary pump, an autosampler, a column compartment unit, a photodiode array detector (PDA), and a fluorescence detector. […] The warfarin metabolites, 6-, 8-, and 10-hydroxywarfarin, were monitored by UV at 313 nm, and 7-hydroxywarfarin by fluorescence at Ex320 nm/Em380 nm. […]

The target in data set [2] is T2, CYP2E1 (Homo sapiens, UniProt P05181).
T2 construct: tissue Gentest Corp. (Woburn, Mass.); host or cells: pooled human liver microsomes
Nature of the data set: CYP inhibition in HLM: chlorzoxazone 6-hydroxylation. The note with it: 10 or 50 μM. The class given is in vitro ADME. Here is the method:
as §1, §2
2. […] 6-hydroxychlorzoxazone was monitored by UV at 280 nm.
Data were acquired and analyzed by ChemStation (Version 6.03, Hewlett Packard, Waldbronn, Germany) for 6-, 7-, and 10-hydroxywarfarin and 6-hydroxychlorzoxazone, and MacQuan (Version 1.6, PE Biosystem, Foster City, Calif.) for 1′-hydroxybufuralol and 4′-hydroxymephenytoin. Quantification was based on peak area ratios of metabolites over the respective IS against the respective concentration of the metabolites. […] The metabolic rates were determined using Excel (Microsoft Office 97, Microsoft Corporation, Redmond, Wash.) or SigmaPlot (Version 6.00, SPSS Inc. Chicago, Ill.). […]

T2 sequence (P05181 whole entry): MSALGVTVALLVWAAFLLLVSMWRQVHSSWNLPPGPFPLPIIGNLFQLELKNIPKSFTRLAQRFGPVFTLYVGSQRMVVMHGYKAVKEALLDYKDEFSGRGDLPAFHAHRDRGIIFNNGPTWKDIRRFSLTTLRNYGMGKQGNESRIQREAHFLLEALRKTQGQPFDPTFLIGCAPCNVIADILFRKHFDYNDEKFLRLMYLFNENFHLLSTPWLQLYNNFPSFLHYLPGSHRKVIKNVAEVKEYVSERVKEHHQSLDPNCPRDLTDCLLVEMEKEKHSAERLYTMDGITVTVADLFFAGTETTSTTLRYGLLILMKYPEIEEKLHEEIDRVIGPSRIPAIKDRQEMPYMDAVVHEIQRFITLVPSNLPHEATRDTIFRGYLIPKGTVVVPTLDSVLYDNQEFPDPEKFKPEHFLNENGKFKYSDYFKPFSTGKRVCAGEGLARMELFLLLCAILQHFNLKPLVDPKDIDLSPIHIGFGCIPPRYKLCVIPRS
T1 sequence (P11712 whole entry): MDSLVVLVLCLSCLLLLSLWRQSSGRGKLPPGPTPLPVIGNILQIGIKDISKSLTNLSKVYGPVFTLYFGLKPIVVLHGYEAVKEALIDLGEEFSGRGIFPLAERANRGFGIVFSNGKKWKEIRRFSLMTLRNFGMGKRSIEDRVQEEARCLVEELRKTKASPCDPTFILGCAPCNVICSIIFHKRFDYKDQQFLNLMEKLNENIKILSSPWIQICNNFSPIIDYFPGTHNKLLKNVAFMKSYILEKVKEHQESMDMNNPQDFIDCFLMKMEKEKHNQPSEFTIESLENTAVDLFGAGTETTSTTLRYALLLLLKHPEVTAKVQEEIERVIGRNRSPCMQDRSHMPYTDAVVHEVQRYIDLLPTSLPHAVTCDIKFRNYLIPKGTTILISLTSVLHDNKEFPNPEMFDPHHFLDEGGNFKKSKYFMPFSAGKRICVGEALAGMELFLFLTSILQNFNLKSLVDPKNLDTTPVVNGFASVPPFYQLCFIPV

In the case of `CNC(=O)Cc1ccc2ccn(C3CCN(CCc4ccccc4F)CC3)c2c1` [Compound 1, N-methyl-[1-[1-(2-fluorophenethyl)piperidine-4-yl]-1H-indol-6-yl] acetamide], the “inhibitory effect on CYP2C9 activity (in words)” value in data set [1] was “no inhibitory effect”. Besides, in data set [2], the “inhibitory effect on CYP2E1 activity (in words)” value is listed as “no inhibitory effect”.

For the origin of these results see patent US20050033056A1, “Hydroxylated indole derivatives and uses thereof” (priority 2001, published 2005).
